Some results are limits rather than exact numbers.

IC50 data for 23 compounds are collected here from US11858941B2, “Heterocyclic and heteroaryl compounds for treating Huntington's disease” (PTC THERAPEUTICS, INC., priority 2018, dated 2024).

This experiment relates to Endogenous Huntingtin Protein. Briefly: Endogenous Huntingtin Protein Assay (Meso Scale Discovery ELISA-based electrochemiluminescence). The settings on record: MSD plates coated with MW1 (expanded polyglutamine) or MAB2166 capture antibody; lysates. The class given is cell-based. The procedure, abridged:
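MSD electrochemiluminescence sandwich ELISA: MW1 (expanded polyQ) or MAB2166 capture antibody at 1 μg/mL, samples incubated overnight at 4° C. Detection with rabbit monoclonal #5656S then SULFO-TAG anti-rabbit antibody, each 0.25 μg/mL for 1 h at room temperature.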
On the technique in general: ELISA stands for enzyme-linked immunosorbent assay.
With `CC1(C)CC(n2nnc3cc(-c4ccc(-n5ccnc5)cc4O)nnc32)CC(C)(C)N1` [Cpd 70, 5-(1H-imidazol-1-yl)-2-[3-(2,2,6,6-tetramethylpiperidin-4-yl)-3H-[1,2,3]triazolo[4,5-c]pyridazin-6-yl]phenol], the IC50 (as a rule, the point on the concentration scale where inhibition reaches its midpoint) is at most 100 nM. `CC1(C)CC(n2nnc3cc(-c4ccc(-n5cccn5)cc4O)nnc32)CC(C)(C)N1` [Cpd 34, 5-(1H-pyrazol-1-yl)-2-[3-(2,2,6,6-tetramethylpiperidin-4-yl)-3H-[1,2,3]triazolo[4,5-c]pyridazin-6-yl]phenol] displayed an IC50 of 100 to 500 nM. For `CC1(C)CC(n2nnc3cc(-c4ccc(-n5cnnc5)cc4O)nnc32)CC(C)(C)N1` [Cpd 64, 2-[3-(2,2,6,6-tetramethylpiperidin-4-yl)-3H-[1,2,3]triazolo[4,5-c]pyridazin-6-yl]-5-(4H-1,2,4-triazol-4-yl)phenol], the IC50 lay within 1000 to 3000 nM. Consider `CC1(C)CC(n2nnc3cc(-c4ccc(-c5cnc6nccn6c5)cc4O)nnc32)CC(C)(C)N1` [Cpd 160, 5-(imidazo[1,2-a]pyrimidin-6-yl)-2-(3-(2,2,6,6-tetramethylpiperidin-4-yl)-3H-[1,2,3]triazolo[4,5-c]pyridazin-6-yl)phenol], for which the IC50 was 100 to 500 nM. As to `Cn1ccc(-c2cc(O)c(-c3cc4nnn(C5CC(C)(C)NC(C)(C)C5)c4nn3)cc2F)cc1=O` [Cpd 55, 4-{2-fluoro-5-hydroxy-4-[3-(2,2,6,6-tetramethylpiperidin-4-yl)-3H-[1,2,3]triazolo[4,5-c]pyridazin-6-yl]phenyl}-1-methylpyridin-2(1H)-one], the IC50 was 100 to 500 nM. With `CC1(C)CC(n2nnc3cc(-c4ccc(-c5ccn6nncc6c5)cc4O)nnc32)CC(C)(C)N1` [Cpd 125, 2-[3-(2,2,6,6-tetramethylpiperidin-4-yl)-3H-[1,2,3]triazolo[4,5-c]pyridazin-6-yl]-5-([1,2,3]triazolo[1,5-a]pyridin-5-yl)phenol], the IC50 was 100 to 500 nM. In the case of `Cc1nsc(-c2ccc(-c3cc4nnn(C5CC(C)(C)NC(C)(C)C5)c4nn3)c(O)c2)n1` [Cpd 153, 5-(3-methyl-1,2,4-thiadiazol-5-yl)-2-[3-(2,2,6,6-tetramethylpiperidin-4-yl)-3H-[1,2,3]triazolo[4,5-c]pyridazin-6-yl]phenol], the IC50 was at most 100 nM.

For the compound `CC1(C)C=C(c2coc3cc(-c4ccc(-c5cn[nH]c5)cc4O)nnc23)CC(C)(C)N1` [Cpd 105, 5-(1H-pyrazol-4-yl)-2-[7-(2,2,6,6-tetramethyl-1,2,3,6-tetrahydropyridin-4-yl)furo[3,2-c]pyridazin-3-yl]phenol], the IC50 is at most 100 nM. As to `CC1(C)CC(n2nnc3cc(-c4ccc(-c5ncco5)cc4O)nnc32)CC(C)(C)N1` [Cpd 111, 5-(1,3-oxazol-2-yl)-2-[3-(2,2,6,6-tetramethylpiperidin-4-yl)-3H-[1,2,3]triazolo[4,5-c]pyridazin-6-yl]phenol], the IC50 was at most 100 nM. Then `CC1(C)CC(n2ncc3cc(-c4ccc(-n5nccn5)cc4O)nnc32)CC(C)(C)N1` [Cpd 174, 2-[1-(2,2,6,6-tetramethylpiperidin-4-yl)-1H-pyrazolo[3,4-c]pyridazin-5-yl]-5-(2H-1,2,3-triazol-2-yl)phenol], with at most 100 nM. As for `CN(C)c1cc(-c2ccc(-c3cc4nnn(C5CC(C)(C)NC(C)(C)C5)c4nn3)c(O)c2)ccn1` [Cpd 100, 5-[2-(dimethylamino)pyridin-4-yl]-2-[3-(2,2,6,6-tetramethylpiperidin-4-yl)-3H-[1,2,3]triazolo[4,5-c]pyridazin-6-yl]phenol], the IC50 fell in the range of 1000 to 3000 nM.

Consider `Cc1cnc(-c2ccc(-c3cc4nnn(C5CC(C)(C)NC(C)(C)C5)c4nn3)c(O)c2)s1` [Cpd 133, 5-(5-methyl-1,3-thiazol-2-yl)-2-[3-(2,2,6,6-tetramethylpiperidin-4-yl)-3H-[1,2,3]triazolo[4,5-c]pyridazin-6-yl]phenol], for which the IC50 is 100 to 500 nM.

Compound `CC1(C)CC(n2nnc3cc(-c4ccc(-c5ccnc(OC(F)F)c5)cc4O)nnc32)CC(C)(C)N1` [Cpd 114, 5-[2-(difluoromethoxy)pyridin-4-yl]-2-[3-(2,2,6,6-tetramethylpiperidin-4-yl)-3H-[1,2,3]triazolo[4,5-c]pyridazin-6-yl]phenol] yielded an IC50 of 1000 to 3000 nM. The compound `CC1(C)CC(n2ccc3cc(-c4ncc(-c5cn[nH]c5)cc4O)nnc32)CC(C)(C)N1` [Cpd 136, 5-(1H-pyrazol-4-yl)-2-[7-(2,2,6,6-tetramethylpiperidin-4-yl)-7H-pyrrolo[2,3-c]pyridazin-3-yl]pyridin-3-ol] had an IC50 of at most 100 nM. On to `CC1(C)CC(n2nnc3cc(-c4ccc(-c5cnccn5)cc4O)nnc32)CC(C)(C)N1` [Cpd 60, 5-(pyrazin-2-yl)-2-[3-(2,2,6,6-tetramethylpiperidin-4-yl)-3H-[1,2,3]triazolo[4,5-c]pyridazin-6-yl]phenol], for which the IC50 was 1000 to 3000 nM.

`CC1(C)CC(n2nnc3cc(-c4ccc(-n5cncn5)cc4O)nnc32)CC(C)(C)N1` [Cpd 63, 2-[3-(2,2,6,6-tetramethylpiperidin-4-yl)-3H-[1,2,3]triazolo[4,5-c]pyridazin-6-yl]-5-(1H-1,2,4-triazol-1-yl)phenol] showed a 50% inhibitory concentration (IC50) of at most 100 nM. Turning to `[2H]C([2H])([2H])n1cc(-c2ccc(-c3cc4nnn(C5CC(C)(C)NC(C)(C)C5)c4nn3)c(O)c2)cn1` [Cpd 69, 5-[1-(^2H3)methyl-1H-pyrazol-4-yl]-2-[3-(2,2,6,6-tetramethylpiperidin-4-yl)-3H-[1,2,3]triazolo[4,5-c]pyridazin-6-yl]phenol], the IC50 is at most 100 nM. For the compound `CC1(C)CC(n2nnc3cc(-c4ccc(-c5ccsc5)cc4O)nnc32)CC(C)(C)N1` [Cpd 89, 2-[3-(2,2,6,6-tetramethylpiperidin-4-yl)-3H-[1,2,3]triazolo[4,5-c]pyridazin-6-yl]-5-(thiophen-3-yl)phenol], the IC50 lay within 100 to 500 nM. In the case of `CC1(C)CC(n2nnc3cc(-c4ccc(-c5ccnc6[nH]ccc56)cc4O)nnc32)CC(C)(C)N1` [Cpd 118, 5-(1H-pyrrolo[2,3-b]pyridin-4-yl)-2-[3-(2,2,6,6-tetramethylpiperidin-4-yl)-3H-[1,2,3]triazolo[4,5-c]pyridazin-6-yl]phenol], the IC50 is 1000 to 3000 nM. With `Cn1cnc(-c2ccc(-c3cc4nnn([C@H]5CC(C)(C)NC(C)(C)[C@H]5F)c4nn3)c(O)c2)cc1=O` [Cpd 172, 6-(4-{3-[(3S,4S)-3-fluoro-2,2,6,6-tetramethylpiperidin-4-yl]-3H-[1,2,3]triazolo[4,5-c]pyridazin-6-yl}-3-hydroxyphenyl)-3-methylpyrimidin-4(3H)-one], the IC50 was in the range of 100 to 500 nM.

`Cn1ccc(-c2ccc(-c3cc4nnn(C5CC(C)(C)NC(C)(C)C5)c4nn3)c(O)c2)cc1=O` [Cpd 37, 4-{3-hydroxy-4-[3-(2,2,6,6-tetramethylpiperidin-4-yl)-3H-[1,2,3]triazolo[4,5-c]pyridazin-6-yl]phenyl}-1-methylpyridin-2(1H)-one] registered an IC50 of at most 100 nM.

Compound `CC1(C)C[C@@H](n2nnc3cc(-c4ccc(-c5cn[nH]c5)cc4O)nnc32)[C@H](F)C(C)(C)N1` [Cpd 168, 2-{3-[(3S,4R)-3-fluoro-2,2,6,6-tetramethylpiperidin-4-yl]-3H-[1,2,3]triazolo[4,5-c]pyridazin-6-yl}-5-(1H-pyrazol-4-yl)phenol] registered an IC50 of at most 100 nM.

Take `CC1(C)CC(n2nnc3cc(-c4ccc(-c5cncs5)cc4O)nnc32)CC(C)(C)N1` [Cpd 107, 2-[3-(2,2,6,6-tetramethylpiperidin-4-yl)-3H-[1,2,3]triazolo[4,5-c]pyridazin-6-yl]-5-(1,3-thiazol-5-yl)phenol]: the IC50 was at most 100 nM.
